According to patent US11999993B2, “Use of biomarkers in identifying cancer patients that will be responsive to treatment with a PRMT5 inhibitor” (Janssen Pharmaceutica NV, priority 2017, dated 2024):

Columns and labels:
[1] = system: HCC78; assay: Proliferation sensitivity, NSCLC U2AF1-S34F cell panel; format: cell-based; details: Homo sapiens, Adenocarcinoma
[2] = system: H69V; assay: Cellular sensitivity, lung cancer cell line panel (SCLC); format: cell-based; details: PIK3CA G106_R108del
[3] = system: NCI-H441; assay: Proliferation sensitivity, NSCLC U2AF1-S34F cell panel; format: cell-based; details: Homo sapiens, Adenocarcinoma
[4] = system: LC-2/ad; assay: as above; format: cell-based; details: Homo sapiens, Adenocarcinoma
[5] = system: EPLC272H; assay: Lung cell line panel sensitivity, Cyclin D1 pathway amplified NSCLC; format: cell-based; details: Homo sapiens, EPLC-272H, Adenocarcinoma
[6] = system: HLC1; assay: as above; format: cell-based; details: HLC1, CDK6 amplified, Squamous Cell Carcinoma
[7] = system: LU99a; assay: Cellular sensitivity, lung cancer cell line panel (SCLC); format: cell-based; details: Homo sapiens, LU-99A, PIK3CA T1025A
[8] = system: NCI-H226; assay: Lung cell line panel sensitivity, Cyclin D1 pathway amplified NSCLC; format: cell-based; details: Homo sapiens; NCI-H226, CDK4 amplified, Adenocarcinoma
[9] = system: NCI-H1048; assay: Cellular sensitivity, lung cancer cell line panel (SCLC); format: cell-based; details: Homo sapiens, NCI-H1048, PIK3CA H1047R
[10] = system: MCL xenograft models; details: multiple MCL xenograft models; Chan-Penebre et al. 2015; cited from earlier work
[11] = target: PRMT5 (Homo sapiens, UniProt O14744); details: Chan-Penebre et al., Nat Chem Biol 2015; cited from earlier work
PRMT5, sequence (O14744 whole entry): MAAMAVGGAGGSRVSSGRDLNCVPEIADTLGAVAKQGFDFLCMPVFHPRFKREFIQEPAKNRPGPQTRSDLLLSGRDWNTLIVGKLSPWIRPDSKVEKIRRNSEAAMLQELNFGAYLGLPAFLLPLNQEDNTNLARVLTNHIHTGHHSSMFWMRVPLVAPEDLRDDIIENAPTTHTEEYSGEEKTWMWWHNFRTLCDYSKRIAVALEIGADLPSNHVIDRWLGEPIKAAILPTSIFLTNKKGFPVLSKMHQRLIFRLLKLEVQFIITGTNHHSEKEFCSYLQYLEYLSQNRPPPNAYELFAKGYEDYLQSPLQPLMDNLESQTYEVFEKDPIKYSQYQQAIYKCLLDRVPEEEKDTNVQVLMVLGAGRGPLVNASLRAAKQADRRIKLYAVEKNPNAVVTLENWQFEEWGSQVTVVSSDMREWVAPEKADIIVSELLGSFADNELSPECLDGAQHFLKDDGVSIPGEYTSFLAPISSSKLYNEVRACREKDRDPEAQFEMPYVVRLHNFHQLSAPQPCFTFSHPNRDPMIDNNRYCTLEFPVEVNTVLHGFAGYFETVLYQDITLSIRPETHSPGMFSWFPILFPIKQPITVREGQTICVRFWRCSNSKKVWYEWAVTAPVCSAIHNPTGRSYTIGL
PRMT5, sequence (Q9BQA1 whole entry partner): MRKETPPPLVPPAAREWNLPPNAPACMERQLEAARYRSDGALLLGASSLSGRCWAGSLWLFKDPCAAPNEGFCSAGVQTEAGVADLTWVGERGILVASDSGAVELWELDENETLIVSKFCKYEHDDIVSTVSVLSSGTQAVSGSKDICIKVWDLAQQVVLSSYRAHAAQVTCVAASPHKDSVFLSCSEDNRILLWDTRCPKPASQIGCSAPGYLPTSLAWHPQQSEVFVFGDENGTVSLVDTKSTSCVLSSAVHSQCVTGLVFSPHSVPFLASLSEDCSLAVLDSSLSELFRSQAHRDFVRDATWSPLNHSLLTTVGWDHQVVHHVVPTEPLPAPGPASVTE

| GI50 [1] [nM] | GI50 [2] [nM] | GI50 [3] [nM] | GI50 [7] [nM] | GI50 [8] [nM] | GI50 [9] [nM] | Compound | GI50 [4] [nM] | GI50 [5] [nM] | GI50 [6] [nM] | anti-tumor activity [10] | PRMT5 inhibitor potency [11] |
| --- | --- | --- | --- | --- | --- | --- | --- | --- | --- | --- | --- |
| 108 | 85.6 | 98.4 | 129 | 205 | 94.6 | Nc1ncnc2c1ccn2[C@@H]1O[C@H](COc2ccc3cc(Br)cnc3c2)[C@@H](O)[C@H]1O [Compound 2] | 116 | 98.5 | 96.4 | – | – |
| – | – | – | – | – | – | O=C(NC[C@H](O)CN1CCc2ccccc2C1)c1cc(NC2COC2)ncn1 [EPZ015666] | – | – | – | anti-tumor activity in multiple MCL xenograft models | sub-nanomolar |
